target: Histone-lysine N-methyltransferase EZH2 (Homo sapiens, UniProt Q15910); assay: Inhibition of EZH2 in human G-401 cells assessed as reduction in H3K27 methylation incubated for 48 hrs by ELISA; format: cell-based
Sequence (Q15910 whole entry): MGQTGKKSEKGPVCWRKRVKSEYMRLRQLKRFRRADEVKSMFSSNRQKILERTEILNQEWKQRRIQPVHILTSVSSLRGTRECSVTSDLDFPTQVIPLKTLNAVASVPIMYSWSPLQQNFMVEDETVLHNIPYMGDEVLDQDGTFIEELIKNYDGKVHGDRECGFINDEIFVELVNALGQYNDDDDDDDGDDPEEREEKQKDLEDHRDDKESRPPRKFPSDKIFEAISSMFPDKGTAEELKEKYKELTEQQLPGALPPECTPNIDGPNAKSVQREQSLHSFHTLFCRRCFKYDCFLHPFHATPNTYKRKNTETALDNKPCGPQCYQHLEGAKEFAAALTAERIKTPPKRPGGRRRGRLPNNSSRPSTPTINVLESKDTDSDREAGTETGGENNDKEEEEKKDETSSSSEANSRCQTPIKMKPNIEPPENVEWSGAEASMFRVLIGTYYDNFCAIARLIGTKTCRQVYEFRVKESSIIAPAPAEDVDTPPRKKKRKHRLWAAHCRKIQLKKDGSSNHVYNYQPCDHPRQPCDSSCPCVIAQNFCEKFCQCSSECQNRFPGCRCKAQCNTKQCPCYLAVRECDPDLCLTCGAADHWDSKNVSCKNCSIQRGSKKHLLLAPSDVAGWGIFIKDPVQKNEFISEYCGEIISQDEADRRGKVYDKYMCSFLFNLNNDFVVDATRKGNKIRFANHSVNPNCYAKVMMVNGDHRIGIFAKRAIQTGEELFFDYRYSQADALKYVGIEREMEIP

IC50, < 10 nM:
Cc1ccc2ccc(N[C@H]3CC[C@H](CNc4ccc(CC(=O)NC5COC5)cn4)CC3)nc2c1Cl
Cc1ccc2ccc(N[C@H]3CC[C@H](CNc4ncc(C(F)(F)C(=O)NC5COC5)cn4)CC3)nc2c1Cl
Cc1ccc2ccc(N[C@H]3CC[C@H](CNc4ncc(C(CO)C(=O)NC5COC5)cn4)CC3)nc2c1Cl (stereo partly specified)
Cc1ccc2ccc(N[C@H]3CC[C@H](CNc4ncc(C(O)C(=O)NC5COC5)cn4)CC3)nc2c1Cl (stereo partly specified)
Cc1ccc2ccc(N[C@H]3CC[C@H](CNc4ncc(CC(=O)NC5COC5)cn4)CC3)nc2c1Cl
Cc1ccc2ccc(N[C@H]3CC[C@H](CNc4ncc(C(C#N)C(=O)NC5COC5)cn4)CC3)nc2c1Cl (stereo partly specified)

— ChEMBL document CHEMBL5131536, “Novel Quinoline Compounds as EZH2 Inhibitors for Treating Cancer” (ACS Med Chem Lett, 2022)
